In ChEMBL document CHEMBL1201862, “PubChem BioAssay data set” (2004):
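Grown in 96-well plates, cells were treated for 48 hours with each compound at five concentrations. Insufficient inhibition: endpoint recorded as highest concentration tested. At the GI50, growth is halved.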 Active and inactive are the calls of the source. Cut-off read from the data, not from the text of the source: active = GI50 up to about 1.1 µM and inactive = higher.

How the values were obtained:
Assay in all cases: NCI anticancer screen, dose series, 48 h
ACHN = tested on: ACHN
CAKI-1 = tested on: CAKI-1
DU-145 = tested on: DU-145
HOP-62 = tested on: HOP-62
K562 = tested on: K562
KM12 = tested on: KM12
MCF7 = tested on: MCF7
MDA-MB-231 = tested on: MDA-MB-231
MDA-MB-435 = tested on: MDA-MB-435
MDA-N = tested on: MDA-N
NCI-H226 = tested on: NCI-H226
NCI-H23 = tested on: NCI-H23
NCI-H522 = tested on: NCI-H522
NCI/ADR-RES = tested on: NCI/ADR-RES
OVCAR-5 = tested on: OVCAR-5
SK-OV-3 = tested on: SK-OV-3
SN12C = tested on: SN12C
SNB-19 = tested on: SNB-19
SNB-75 = tested on: SNB-75
U-251 = tested on: U-251

Row | SMILES | GI50 (ACHN) | GI50 (CAKI-1) | GI50 (DU-145) | GI50 (HOP-62) | GI50 (K562) | GI50 (KM12) | GI50 (MCF7) | GI50 (MDA-MB-231) | GI50 (MDA-MB-435) | GI50 (MDA-N) | GI50 (NCI-H226) | GI50 (NCI-H23) | GI50 (NCI-H522) | GI50 (NCI/ADR-RES) | GI50 (OVCAR-5) | GI50 (SK-OV-3) | GI50 (SN12C) | GI50 (SNB-19) | GI50 (SNB-75) | GI50 (U-251)
1 | CC(C)=CCC[C@@H](C)C1=C(Nc2ccccc2)C(=O)C(C)=C(O)C1=O | 2.56 µM (inactive) | 2.82 µM (inactive) | 4.59 µM (inactive) | 1.81 µM (inactive) | 2.92 µM (inactive) | 3.42 µM (inactive) | 4.29 µM (inactive) | 2.89 µM (inactive) | 4.72 µM (inactive) | 4.54 µM (inactive) | 3.13 µM (inactive) | 2.82 µM (inactive) | 3.03 µM (inactive) | 0.815 µM (active) | 8.95 µM (inactive) | 5.58 µM (inactive) | 4.19 µM (inactive) | 3.77 µM (inactive) | 3.11 µM (inactive) | 2.74 µM (inactive)
2 | Nc1cc2nc(-c3ccccc3)cn2cn1 | > 100 µM (inactive) | 89.9 µM (inactive) | > 100 µM (inactive) | > 100 µM (inactive) | > 100 µM (inactive) | 66.2 µM (inactive) | 70.1 µM (inactive) | > 100 µM (inactive) | > 100 µM (inactive) | > 100 µM (inactive) | > 100 µM (inactive) | > 100 µM (inactive) |  | > 100 µM (inactive) | 79.6 µM (inactive) | > 100 µM (inactive) | 85.1 µM (inactive) | > 100 µM (inactive) | 40.2 µM (inactive) | > 100 µM (inactive)
3 | O=c1oc2ccc(Cl)cc2cc1C1=CSC2=NCCN12 | 37.7 µM (inactive) | 44.5 µM (inactive) | 19.3 µM (inactive) | 17.4 µM (inactive) | 18.2 µM (inactive) | 19.8 µM (inactive) | 19.6 µM (inactive) | 20.4 µM (inactive) | 21.5 µM (inactive) | 20.8 µM (inactive) |  | 21.4 µM (inactive) | 18.7 µM (inactive) | 44.4 µM (inactive) | 50.5 µM (inactive) | 38.1 µM (inactive) | 17.4 µM (inactive) | 25 µM (inactive) | 44.5 µM (inactive) | 23.2 µM (inactive)
4 | NC(=O)NC(=O)c1cccc(NC(=O)CCl)c1 | 2.56 µM (inactive) | 1.39 µM (inactive) | 1.36 µM (inactive) | 1.61 µM (inactive) | 0.714 µM (active) | 0.579 µM (active) | 0.989 µM (active) | 2.79 µM (inactive) | 0.518 µM (active) | 0.385 µM (active) | 2.19 µM (inactive) | 0.953 µM (active) | 1.55 µM (inactive) | 1.65 µM (inactive) | 1.65 µM (inactive) | 1.45 µM (inactive) | 1.43 µM (inactive) |  | 1.98 µM (inactive) | 0.975 µM (active)
5 | CC1=C(C(=O)OC23CC4CC(CC(C4)C2)C3)C(c2ccccc2OC(F)F)C(C(=O)OC23CC4CC(CC(C4)C2)C3)=C(C)N1 (stereo not drawn) |  | > 100 µM (inactive) | > 100 µM (inactive) | > 100 µM (inactive) |  | > 100 µM (inactive) | 74.6 µM (inactive) | > 100 µM (inactive) | > 100 µM (inactive) | > 100 µM (inactive) | > 100 µM (inactive) | > 100 µM (inactive) | 75.2 µM (inactive) | > 100 µM (inactive) | > 100 µM (inactive) | > 100 µM (inactive) | > 100 µM (inactive) | > 100 µM (inactive) | 43.7 µM (inactive) | > 100 µM (inactive)
6 | CCO/C=C(\C(=O)OC)S(=O)(=O)c1ccc(C)cc1 | > 100 µM (inactive) |  | > 100 µM (inactive) | > 100 µM (inactive) | > 100 µM (inactive) | > 100 µM (inactive) | > 100 µM (inactive) | > 100 µM (inactive) | > 100 µM (inactive) | > 100 µM (inactive) | > 100 µM (inactive) | > 100 µM (inactive) | > 100 µM (inactive) | > 100 µM (inactive) | > 100 µM (inactive) | > 100 µM (inactive) | > 100 µM (inactive) | > 100 µM (inactive) | > 100 µM (inactive) | > 100 µM (inactive)
7 | CC(=O)NC(C)c1ccc(/N=N/N2CCCC2)cc1 (stereo not drawn) | > 100 µM (inactive) | > 100 µM (inactive) | > 100 µM (inactive) | > 100 µM (inactive) |  | > 100 µM (inactive) | > 100 µM (inactive) | > 100 µM (inactive) | > 100 µM (inactive) | > 100 µM (inactive) | > 100 µM (inactive) | > 100 µM (inactive) | > 100 µM (inactive) | > 100 µM (inactive) | > 100 µM (inactive) | > 100 µM (inactive) | > 100 µM (inactive) | > 100 µM (inactive) | > 100 µM (inactive) | > 100 µM (inactive)
8 | O=c1cccc(C2CC(CO)C3CCCCN3C2)[nH]1 (stereo not drawn) | > 100 µM (inactive) | > 100 µM (inactive) | > 100 µM (inactive) |  | > 100 µM (inactive) | > 100 µM (inactive) | > 100 µM (inactive) | > 100 µM (inactive) | > 100 µM (inactive) | > 100 µM (inactive) | > 100 µM (inactive) | > 100 µM (inactive) | > 100 µM (inactive) | > 100 µM (inactive) | > 100 µM (inactive) | > 100 µM (inactive) | > 100 µM (inactive) | > 100 µM (inactive) | 86.9 µM (inactive) | > 100 µM (inactive)
9 | C=CC1(c2ccc(OC)cc2)OCCCO1 | > 100 µM (inactive) |  | > 100 µM (inactive) | > 100 µM (inactive) | > 100 µM (inactive) | > 100 µM (inactive) | > 100 µM (inactive) | > 100 µM (inactive) | > 100 µM (inactive) | > 100 µM (inactive) | > 100 µM (inactive) | > 100 µM (inactive) | > 100 µM (inactive) | > 100 µM (inactive) | > 100 µM (inactive) | > 100 µM (inactive) | > 100 µM (inactive) | > 100 µM (inactive) | > 100 µM (inactive) | > 100 µM (inactive)
10 | CSC(=S)N(C)C [CYSTOGON] |  | > 100 µM (inactive) | > 100 µM (inactive) | > 100 µM (inactive) | > 100 µM (inactive) | > 100 µM (inactive) | > 100 µM (inactive) | > 100 µM (inactive) | > 100 µM (inactive) | > 100 µM (inactive) | > 100 µM (inactive) | > 100 µM (inactive) | > 100 µM (inactive) | > 100 µM (inactive) | > 100 µM (inactive) | > 100 µM (inactive) | > 100 µM (inactive) | > 100 µM (inactive) | 80 µM (inactive) | > 100 µM (inactive)
11 | C=C(C)[C@@]12C[C@H](OC(=O)[C@H](O)[C@@H](NC(=O)c3ccccc3)c3ccccc3)C(C)=C1[C@@H](OC(C)=O)C(=O)[C@@]1(C)C([C@@H]2OC(=O)c2cc(F)cc(F)c2)C2(OC(C)=O)CO[C@@H]2C[C@@H]1O (stereo partly drawn) | 0.555 µM (active) | 0.525 µM (active) | 0.267 µM (active) | 0.123 µM (active) | 0.0361 µM (active) |  | 0.029 µM (active) | 0.21 µM (active) | 0.0117 µM (active) | 0.0133 µM (active) | 0.883 µM (active) | 0.152 µM (active) |  | 1.57 µM (inactive) | 0.165 µM (active) | 0.417 µM (active) | 0.144 µM (active) | 0.238 µM (active) | 0.0966 µM (active) | 0.0822 µM (active)
12 | COc1nc(=O)n(C2CC(F)C(CO)O2)cc1C (stereo not drawn) | > 100 µM (inactive) | > 100 µM (inactive) | > 100 µM (inactive) | > 100 µM (inactive) | > 100 µM (inactive) | > 100 µM (inactive) | > 100 µM (inactive) | > 100 µM (inactive) | > 100 µM (inactive) | > 100 µM (inactive) | > 100 µM (inactive) | > 100 µM (inactive) | > 100 µM (inactive) | > 100 µM (inactive) |  |  | > 100 µM (inactive) | > 100 µM (inactive) |  | > 100 µM (inactive)
13 | CC(=O)Nc1ncc(Sc2ccccc2C(=O)O)s1 | > 100 µM (inactive) | > 100 µM (inactive) | > 100 µM (inactive) | > 100 µM (inactive) | > 100 µM (inactive) | > 100 µM (inactive) | > 100 µM (inactive) | > 100 µM (inactive) | > 100 µM (inactive) | > 100 µM (inactive) | > 100 µM (inactive) | > 100 µM (inactive) |  | > 100 µM (inactive) | > 100 µM (inactive) |  | > 100 µM (inactive) | > 100 µM (inactive) | > 100 µM (inactive) | > 100 µM (inactive)
14 | O=C(c1ccccc1)N(CCCCNC(=O)C(F)(F)F)CCCNC(=O)C(F)(F)F | > 100 µM (inactive) | > 100 µM (inactive) | > 100 µM (inactive) |  | > 100 µM (inactive) | > 100 µM (inactive) | > 100 µM (inactive) | > 100 µM (inactive) | > 100 µM (inactive) | > 100 µM (inactive) | > 100 µM (inactive) | > 100 µM (inactive) | > 100 µM (inactive) | > 100 µM (inactive) | > 100 µM (inactive) | > 100 µM (inactive) | > 100 µM (inactive) | > 100 µM (inactive) | 32.6 µM (inactive) | > 100 µM (inactive)
15 | NC(=O)OCc1c(-c2ccccc2)nn(-c2ccccc2)c1COC(N)=O |  | > 100 µM (inactive) | > 100 µM (inactive) |  |  | > 100 µM (inactive) | > 100 µM (inactive) | > 100 µM (inactive) | > 100 µM (inactive) | > 100 µM (inactive) | > 100 µM (inactive) | > 100 µM (inactive) | > 100 µM (inactive) | > 100 µM (inactive) | > 100 µM (inactive) |  | > 100 µM (inactive) | > 100 µM (inactive) | 45.7 µM (inactive) | > 100 µM (inactive)
